Where two headings read alike, the source gives them in different places.

The text below walks through data of publication PMC6600263, “Neuroprotective Effects of Red Ginseng Saponins in Scopolamine-Treated Rats and Activity Screening Based on Pharmacokinetics” (Molecules, 2019).

Data set [1] concerns recognition deficits induced by cyproheptadine. On the set-up: method as in PMID 23717153. The note with it: rats; cited from earlier work.
Data set [2] is described as follows: pharmacokinetics of 16 ginsenosides in rat plasma after oral administration of RGS. It is filed as in vivo. The method, then: The SD rats were randomly allocated into two groups, i.e., normal group and SA-treated group.
Blood samples were collected from the postocular vein at 0.083, 0.25, 0.5, 1, 2, 3, 4, 6, 8, 12 and 24 h after SA injection. Blood sample immediately was centrifuged at 18,000 rpm for 10 min. Plasma was withdrawn (0.15 mL) and diluted with 0.3 mL of acetonitrile and 20 µL of the IS (6 µg/mL). After 30 min, the mixture was clarified by centrifugation at 18,000 rpm for 10 min at 4 °C. The supernatant was dried under a stream of N2, and the residue was dissolved in 0.1 mL of methanol and stored at −20 °C for further analysis.
The UPLC-MS/MS system (Waters Xeve TQ, Waters, Cork, Ireland) with a column C18 (ACQUITY, 1.7 μm, 2.1 × 50 mm, Waters, Cork, Ireland) were adopted at 35 °C. Water (A) and acetonitrile (B) were used as mobile phases at a flow rate of 0.4 mL/min. The treatment of elution was performed according to following pattern: 10% B for 0–5.0 min; 10→15% B for 5.0–8.0 min; 15→25% B for 8.0–12.0 min; 25→40% for 12.0–20.0 min; 40→50% B for 20.0–25.0 min; 50→65% B for 25.0–30.0 min. With regard to mass detection, the negative mode of electrospray ionization source was adopted. The optimized parameters of multiple reactions monitoring (MRM) system including collision energy, Q1 Pre Bias, Q3 Pre Bias, collision energy and MRM transition of the 16 ginsenosides are shown in Table 1.
Based on a non-compartmental method, WinNonlin software (Phoenix, version 6.1) was employed to calculate the pharmacokinetic parameters. The statistical difference between groups was analyzed by One-Way ANOVA analysis using SPSS Version 17.0. (SPSS Inc., Chicago, IL, USA). The difference between groups was regarded significant when p < 0.05. We first normalized the pharmacokinetic data and then visualized them based on principal component analysis (PCA).

The subject of data set [3] is scopolamine-induced learning ability impairment. On the set-up: method as in PMID 24503167. Conditions: rats; cited from earlier work.
[4] abbreviates: SD, rat, in vivo, po, 100 mg/kg.
[5] abbreviates: SD, rat, plasma, po, 100 mg/kg, model (scopolamine 1 mg/kg i.p.-treated) rats, oral RGS single dose 100 mg/kg, plasma, mean ± S.D., n = 5, read-out: C Max.
Setting [6] is: SD, rat, plasma, po, 100 mg/kg, model (scopolamine 1 mg/kg i.p.-treated) rats, oral RGS single dose 100 mg/kg, plasma, mean ± S.D., n = 5, read-out: MRT.
Where [7] appears, read: SD, rat, plasma, po, 100 mg/kg, model (scopolamine 1 mg/kg i.p.-treated) rats, oral RGS single dose 100 mg/kg, plasma, mean ± S.D., n = 5, read-out: T1/2 (converted).
Setting [8] is: SD, rat, plasma, po, 100 mg/kg, model (scopolamine 1 mg/kg i.p.-treated) rats, oral RGS single dose 100 mg/kg, plasma, mean ± S.D., n = 5, read-out: T Max.
[9] abbreviates: SD, rat, plasma, po, 100 mg/kg, normal rats, oral RGS single dose 100 mg/kg, plasma, mean ± S.D., n = 5, read-out: C Max.
Where [10] appears, read: SD, rat, plasma, po, 100 mg/kg, normal rats, oral RGS single dose 100 mg/kg, plasma, mean ± S.D., n = 5, read-out: MRT.
Setting [11] is: SD, rat, plasma, po, 100 mg/kg, normal rats, oral RGS single dose 100 mg/kg, plasma, mean ± S.D., n = 5, read-out: T1/2 (converted).
The mark [12] stands for this setting: SD, rat, plasma, po, 100 mg/kg, normal rats, oral RGS single dose 100 mg/kg, plasma, mean ± S.D., n = 5, read-out: T Max.
The mark [13] stands for this setting: model (scopolamine 1 mg/kg i.p.-treated) rats, oral RGS single dose 100 mg/kg, plasma, mean ± S.D., n = 5.
The mark [14] stands for this setting: normal rats, oral RGS single dose 100 mg/kg, plasma, mean ± S.D., n = 5.

By MRT is commonly meant a mean duration of stay, worked out from the concentration-time curve. For `CC(C)=CCC[C@](C)(O)[C@H]1CC[C@]2(C)[C@@H]1[C@H](O)C[C@@H]1[C@@]3(C)CC[C@H](O)C(C)(C)[C@@H]3[C@@H](O[C@@H]3O[C@H](CO)[C@@H](O)[C@H](O)[C@H]3O[C@@H]3O[C@@H](C)[C@H](O)[C@@H](O)[C@H]3O)C[C@]12C` [Rg2, Ginsenoside Rg2], the “effect on recognition deficits induced by cyproheptadine” value in data set [1] is listed as “improves”. In data set [2] (setting [4]), the “C Max” value was 26.3 ± 4.8 ng/g, the MRT turned out to be 26.5 ± 3.6 h and the T1/2 amounted to 18.9 ± 1.6 h. The Cmax in data set [2] (SD, rat, in vivo, po, 100 mg/kg, C Max) was 15.3 ± 5.6 ng/g. In data set [2] (SD, rat, in vivo, po, 100 mg/kg, MRT), this compound returned a mean residence time (MRT) of 22.3 ± 1.4 h. The compound also had a half-life in data set [2] (SD, rat, in vivo, po, 100 mg/kg, T1/2) of 19.8 ± 2.5 h. Also, in data set [2] (SD, rat, in vivo, po, 100 mg/kg, T Max), the Tmax was determined as 1.5 ± 0.8 h.

For the compound `CC(C)=CCCC(C)(OC1OC(CO)C(O)C(O)C1O)C1CCC2(C)C1C(O)CC1C3(C)CCC(O)C(C)(C)C3C(OC3OC(CO)C(O)C(O)C3O)CC12C` (centres unmarked) [Rg1], the Cmax was 32.2 ± 2.1 ng/g in data set [2] (setting [5]) and 20.5 ± 2.5 ng/g in data set [2] (setting [9]). Further, the MRT in data set [2] (setting [6]) was 16.5 ± 3.2 h; in data set [2] (setting [10]), 15.6 ± 2.1 h. The half-life in data set [2] (setting [7]) was 10.2 ± 1.2 h; in data set [2] (setting [11]), 9.6 ± 1.5 h. In addition, the Tmax came out at 4 ± 0.9 h in data set [2] (setting [8]) and 4 ± 1.2 h in data set [2] (setting [12]). Besides, the “AUC 0-t” value in data set [2] (setting [13]) came out at 664.5 ± 15.2 ng·h/g; in data set [2] (setting [14]), 568.9 ± 10.3 ng·h/g. The “effect on scopolamine-induced learning ability impairment” value in data set [3] is on record as “improves”.

For the compound `CC(C)=CCCC(C)(OC1OC(CO)C(O)C(O)C1O)C1CCC2(C)C1C(O)CC1C3(C)CCC(OC4OC(CO)C(O)C(O)C4OC4OC(CO)C(O)C(O)C4O)C(C)(C)C3CCC12C` (centres unmarked) [Rd], the Cmax was found to be 45.6 ± 2.9 ng/g in data set [2] (setting [5]) and 47.5 ± 2.6 ng/g in data set [2] (setting [9]). Moreover, the figures for the mean residence time MRT in data set [2] (setting [6]) and in data set [2] (setting [10]) were 7.7 ± 1.3 h and 8.6 ± 1.2 h, respectively. Also, the half-life was 6.2 ± 1.9 h in data set [2] (setting [7]) and 5.5 ± 5.6 h in data set [2] (setting [11]). Also, the Tmax was found to be 2 ± 0.8 h in data set [2] (setting [8]) and 1.5 ± 0.4 h in data set [2] (setting [12]). For the same compound, the “AUC 0-t” value is 331.2 ± 11.2 ng·h/g in data set [2] (setting [13]) and 321.5 ± 9.1 ng·h/g in data set [2] (setting [14]). In addition, the “effect on scopolamine-induced learning ability impairment” value in data set [3] is recorded as “do not”.

On to `CC(C)=CCCC(C)(OC1OC(COC2OC(CO)C(O)C(O)C2O)C(O)C(O)C1O)C1CCC2(C)C1C(O)CC1C3(C)CCC(OC4OC(CO)C(O)C(O)C4OC4OC(CO)C(O)C(O)C4O)C(C)(C)C3CCC12C` (centres unmarked) [Rb1], for which the Cmax in data set [2] (setting [5]) came out at 34.8 ± 2.7 ng/g; in data set [2] (setting [9]) it was 35.2 ± 4.9 ng/g. Further, the mean residence time (MRT) stood at 6.5 ± 1.5 h in data set [2] (setting [6]) and 6.2 ± 1.8 h in data set [2] (setting [10]). Also, the half-life in data set [2] (setting [7]) is 4.8 ± 1.1 h; in data set [2] (setting [11]), 4.3 ± 0.8 h. For the same compound, the Tmax in data set [2] (setting [8]) came to 4.1 ± 0.8 h; in data set [2] (setting [12]), 4.6 ± 1.1 h. For the same compound, the “AUC 0-t” value in data set [2] (setting [13]) amounted to 298.9 ± 11.7 ng·h/g; in data set [2] (setting [14]) it was 255.6 ± 7.4 ng·h/g. In data set [3], the “effect on scopolamine-induced learning ability impairment” value was “do not”.
